What was measured:
Assay in all cases: relative viability (nuclei count vs DMSO), 5 days (fraction); higher = more cells survive
[1] = compound: C1CC(C2=C(C1)C3=C(N2)C=CC(=C3)Cl)C(=O)N [Selisistat] + C[C@@H](Oc1cc(-c2cnn(C3CCNCC3)c2)cnc1N)c1c(Cl)ccc(F)c1Cl [Crizotinib] (partner 1 µM)
Outline: (§1)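 Lung cancer cell lines in 1536-well plates got either a single drug or a fixed anchor-drug dose together with five library-drug doses (not always all listed) in √10 steps, by pin tool, on the day after seeding. Nuclei were counted after 5 days, and relative viability is the treated-to-vehicle ratio of nuclei counts. Values are medians of duplicate plates.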

[2] = compound: C1CC(C2=C(C1)C3=C(N2)C=CC(=C3)Cl)C(=O)N [Selisistat] + Nc1ncn([C@H]2C[C@H](O)[C@@H](CO)O2)c(=O)n1 [Decitabine] (partner 2 µM)
Outline: as §1

[3] = compound: c1ccc2c(CCNc3ccc(Nc4ccncc4)cc3)c[nH]c2c1 [Serdemetan] + Cc1cc(Nc2cc(N3CCN(C)CC3)nc(Sc3ccc(NC(=O)C4CC4)cc3)n2)n[nH]1 [Tozasertib] (partner 0.1 µM)
Outline: as §1

[4] = compound: c1ccc2c(CCNc3ccc(Nc4ccncc4)cc3)c[nH]c2c1 [Serdemetan] + O=C(CCCCCCC(=O)Nc1ccccc1)NO [Vorinostat] (partner 1 µM)
Outline: as §1

Row | Cell Line | relative viability ([1]; first compound 0.4 µM) | relative viability ([1]; first compound 1.265 µM) | relative viability ([1]; first compound 4 µM) | relative viability ([1]; first compound 12.65 µM) | relative viability ([1]; first compound 40 µM) | relative viability ([2]; first compound 0.4 µM) | relative viability ([2]; first compound 1.265 µM) | relative viability ([2]; first compound 4 µM) | relative viability ([2]; first compound 12.65 µM) | relative viability ([2]; first compound 40 µM) | relative viability ([3]; first compound 0.04 µM) | relative viability ([3]; first compound 0.1265 µM) | relative viability ([3]; first compound 0.4 µM) | relative viability ([3]; first compound 1.265 µM) | relative viability ([3]; first compound 4 µM) | relative viability ([4]; first compound 0.04 µM) | relative viability ([4]; first compound 0.1265 µM) | relative viability ([4]; first compound 0.4 µM) | relative viability ([4]; first compound 1.265 µM) | relative viability ([4]; first compound 4 µM)
1 | BEN | 0.843 | 0.76 | 0.748 | 0.72 | 0.863 | 0.923 | 0.556 | 0.479 | 0.707 | 0.691 | 0.451 | 0.477 | 0.531 | 0.478 | 0.469 | 0.603 | 0.54 | 0.688 | 0.615 | 0.514
2 | NCI-H1666 | 1.12 | 0.871 | 0.788 | 0.835 | 0.618 | 0.825 | 0.699 | 0.692 | 0.687 | 0.778 | 0.569 | 0.588 | 0.588 | 0.553 | 0.547 | 0.896 | 0.935 | 0.907 | – | 0.713
3 | LC-2-ad | 0.468 | – | 0.42 | 0.433 | 0.433 | 0.909 | 0.797 | 0.764 | 0.821 | 0.775 | 0.397 | 0.487 | 0.459 | 0.461 | 0.385 | 0.71 | 0.683 | 0.673 | 0.646 | 0.638
4 | Calu-6 | 0.778 | 0.602 | 0.764 | 0.682 | 0.633 | – | – | – | – | – | – | – | – | – | – | – | – | – | – | –
5 | NCI-H2342 | – | – | – | – | – | 0.734 | 0.772 | 0.689 | 0.704 | 0.874 | 0.607 | 0.553 | 0.605 | 0.493 | 0.408 | 0.705 | 0.731 | 1.07 | 0.908 | 0.478
6 | EBC-1 | 0.2 | 0.19 | 0.191 | 0.169 | 0.184 | – | – | – | – | – | – | – | – | – | – | – | – | – | – | –
7 | NCI-H1299 | 0.944 | 1 | 0.946 | 0.944 | 1 | – | – | – | – | – | – | – | – | – | – | – | – | – | – | –
8 | NCI-H2228 | 0.529 | 0.49 | 0.362 | 0.442 | 0.379 | – | – | – | – | – | 0.267 | 0.246 | 0.371 | 0.128 | 0.162 | 0.588 | 0.542 | 0.573 | 0.244 | 0.219
9 | NCI-H522 | – | – | – | – | – | 0.768 | 0.662 | 0.664 | 0.617 | 0.647 | 0.554 | 0.575 | 0.44 | – | 0.497 | 0.982 | 0.955 | 0.923 | 0.831 | 0.799
10 | IA-LM | 0.646 | 0.759 | 1.2 | – | 0.869 | – | – | – | – | – | – | – | – | – | – | 1.05 | 0.964 | 0.9 | 0.81 | 0.419
11 | NCI-H1793 | – | – | – | – | – | 0.489 | 0.459 | – | 0.552 | 0.616 | 0.332 | 0.298 | 0.268 | 0.255 | 0.186 | 0.808 | 0.671 | 0.439 | 0.286 | 0.397
12 | CAL-12T | 0.668 | 0.518 | 0.795 | 0.626 | 0.422 | – | – | – | – | – | 0.272 | 0.318 | 0.246 | 0.309 | 0.327 | 0.857 | 0.82 | 0.748 | 0.922 | 0.627

Reference: the supplement of paper PMC10307832
